# Test results: PubChem BioAssay (NCI)
#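 How tested: cells in 96-well plates exposed to compound for 48 hours at five concentrations. GI50 = concentration required for 50% inhibition of growth. The concentration for full growth arrest is given as TGI.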
# How the values were obtained:
# Assay in all cases: NCI anticancer screen, dose series, 48 h
# 786-0 renal = test system: 786-0 renal
# A549 NSCLC = test system: A549 NSCLC
# ACHN renal = test system: ACHN renal
# CAKI-1 renal = test system: CAKI-1 renal
# CCRF-CEM leukemia = test system: CCRF-CEM leukemia
# COLO 205 colon = test system: COLO 205 colon
# DU-145 prostate = test system: DU-145 prostate
# EKVX NSCLC = test system: EKVX NSCLC
# HCC-2998 colon = test system: HCC-2998 colon
# HCT-116 colon = test system: HCT-116 colon
# HCT-15 colon = test system: HCT-15 colon
# HOP-92 NSCLC = test system: HOP-92 NSCLC
# HS 578T breast = test system: HS 578T breast
# HT29 colon = test system: HT29 colon
# IGROV1 ovarian = test system: IGROV1 ovarian
# K-562 leukemia = test system: K-562 leukemia
# KM12 colon = test system: KM12 colon
# LOX IMVI melanoma = test system: LOX IMVI melanoma
# M14 melanoma = test system: M14 melanoma
# MALME-3M melanoma = test system: MALME-3M melanoma
# MCF7 breast = test system: MCF7 breast
# MDA-MB-231 breast = test system: MDA-MB-231 breast
# MDA-MB-435 = test system: MDA-MB-435
# MOLT-4 leukemia = test system: MOLT-4 leukemia
# NCI-H23 lung = test system: NCI-H23 lung
# NCI-H460 lung = test system: NCI-H460 lung
# NCI-H522 lung = test system: NCI-H522 lung
# NCI/ADR-RES ovarian = test system: NCI/ADR-RES ovarian
# OVCAR-4 ovarian = test system: OVCAR-4 ovarian
# OVCAR-5 ovarian = test system: OVCAR-5 ovarian
# OVCAR-8 ovarian = test system: OVCAR-8 ovarian
# PC-3 prostate = test system: PC-3 prostate
# RPMI-8226 leukemia = test system: RPMI-8226 leukemia
# RXF 393 renal = test system: RXF 393 renal
# SF-268 CNS = test system: SF-268 CNS
# SF-295 CNS = test system: SF-295 CNS
# SK-MEL-2 melanoma = test system: SK-MEL-2 melanoma
# SK-MEL-28 melanoma = test system: SK-MEL-28 melanoma
# SK-MEL-5 melanoma = test system: SK-MEL-5 melanoma
# SK-OV-3 ovarian = test system: SK-OV-3 ovarian
# SN12C renal = test system: SN12C renal
# SNB-19 CNS = test system: SNB-19 CNS
# SNB-75 CNS = test system: SNB-75 CNS
# SR leukemia = test system: SR leukemia
# SW-620 colon = test system: SW-620 colon
# TK-10 renal = test system: TK-10 renal
# U251 CNS = test system: U251 CNS
# UACC-257 melanoma = test system: UACC-257 melanoma
# UACC-62 melanoma = test system: UACC-62 melanoma
# UO-31 renal = test system: UO-31 renal
# HL-60(TB) leukemia = test system: HL-60(TB) leukemia
# NCI-H226 lung = test system: NCI-H226 lung
# SF-539 CNS = test system: SF-539 CNS
smiles,measurement,setting,value
C/C1=C\CC[C@@]2(C)O[C@@H]2[C@H]2OC(=O)C(C)C2C[C@H]1O (stereo partly drawn),TGI,786-0 renal,> 100000 nM
same,TGI,A549 NSCLC,> 100000 nM
same,TGI,ACHN renal,> 100000 nM
same,TGI,CAKI-1 renal,> 100000 nM
same,TGI,CCRF-CEM leukemia,> 100000 nM
same,TGI,COLO 205 colon,> 100000 nM
same,TGI,DU-145 prostate,> 100000 nM
same,TGI,EKVX NSCLC,> 100000 nM
same,TGI,HCC-2998 colon,> 100000 nM
same,TGI,HCT-116 colon,> 100000 nM
same,TGI,HCT-15 colon,> 100000 nM
same,TGI,HOP-92 NSCLC,> 100000 nM
same,TGI,HS 578T breast,> 100000 nM
same,TGI,HT29 colon,> 100000 nM
same,TGI,IGROV1 ovarian,> 100000 nM
same,TGI,K-562 leukemia,> 100000 nM
same,TGI,KM12 colon,> 100000 nM
same,TGI,LOX IMVI melanoma,> 100000 nM
same,TGI,M14 melanoma,> 100000 nM
same,TGI,MALME-3M melanoma,> 100000 nM
same,TGI,MCF7 breast,> 100000 nM
same,TGI,MDA-MB-231 breast,> 100000 nM
same,TGI,MDA-MB-435,> 100000 nM
same,TGI,MOLT-4 leukemia,> 100000 nM
same,TGI,NCI-H23 lung,> 100000 nM
same,TGI,NCI-H460 lung,> 100000 nM
same,TGI,NCI-H522 lung,> 100000 nM
same,TGI,NCI/ADR-RES ovarian,> 100000 nM
same,TGI,OVCAR-4 ovarian,> 100000 nM
same,TGI,OVCAR-5 ovarian,> 100000 nM
same,TGI,OVCAR-8 ovarian,> 100000 nM
same,TGI,PC-3 prostate,> 100000 nM
same,TGI,RPMI-8226 leukemia,> 100000 nM
same,TGI,RXF 393 renal,> 100000 nM
same,TGI,SF-268 CNS,> 100000 nM
same,TGI,SF-295 CNS,> 100000 nM
same,TGI,SK-MEL-2 melanoma,> 100000 nM
same,TGI,SK-MEL-28 melanoma,> 100000 nM
same,TGI,SK-MEL-5 melanoma,> 100000 nM
same,TGI,SK-OV-3 ovarian,> 100000 nM
same,TGI,SN12C renal,> 100000 nM
same,TGI,SNB-19 CNS,> 100000 nM
same,TGI,SNB-75 CNS,> 100000 nM
same,TGI,SR leukemia,> 100000 nM
same,TGI,SW-620 colon,> 100000 nM
same,TGI,TK-10 renal,> 100000 nM
same,TGI,U251 CNS,> 100000 nM
same,TGI,UACC-257 melanoma,> 100000 nM
same,TGI,UACC-62 melanoma,> 100000 nM
same,TGI,UO-31 renal,> 100000 nM
c1ccc2cc(Cn3c(-c4ccc5ccccc5c4)[n+](Cc4ccc5ccccc5c4)c4ccccc43)ccc2c1,GI50,ACHN renal,752 nM
same,TGI,ACHN renal,2040 nM
same,GI50,DU-145 prostate,399 nM
same,TGI,DU-145 prostate,1520 nM
same,GI50,HCC-2998 colon,365 nM
same,TGI,HCC-2998 colon,1470 nM
same,GI50,HCT-116 colon,193 nM
same,TGI,HCT-116 colon,598 nM
same,GI50,HL-60(TB) leukemia,293 nM
same,TGI,HL-60(TB) leukemia,944 nM
same,GI50,HOP-92 NSCLC,85.2 nM
same,TGI,HOP-92 NSCLC,416 nM
same,GI50,KM12 colon,269 nM
same,TGI,KM12 colon,869 nM
same,GI50,MALME-3M melanoma,215 nM
same,TGI,MALME-3M melanoma,649 nM
same,GI50,MDA-MB-231 breast,218 nM
same,TGI,MDA-MB-231 breast,961 nM
same,GI50,MDA-MB-435,296 nM
same,TGI,MDA-MB-435,1030 nM
same,GI50,NCI-H226 lung,481 nM
same,TGI,NCI-H226 lung,2460 nM
same,GI50,OVCAR-5 ovarian,410 nM
same,TGI,OVCAR-5 ovarian,1590 nM
same,GI50,PC-3 prostate,228 nM
same,TGI,PC-3 prostate,763 nM
same,GI50,SF-539 CNS,381 nM
same,TGI,SF-539 CNS,1520 nM
same,GI50,SK-MEL-28 melanoma,362 nM
same,TGI,SK-MEL-28 melanoma,1280 nM
same,GI50,SNB-75 CNS,182 nM
same,TGI,SNB-75 CNS,827 nM
same,GI50,SW-620 colon,310 nM
same,TGI,SW-620 colon,1220 nM
same,GI50,UACC-62 melanoma,277 nM
same,TGI,UACC-62 melanoma,890 nM
same,GI50,UO-31 renal,781 nM
same,TGI,UO-31 renal,2300 nM
